Laboratory results published in patent US20140088085A1, “Substituted Benzoazepines As Toll-Like Receptor Modulators” (ARRAY BIOPHARMA, INC, priority 2011, published 2014).
Like-named read-outs stand apart in the source and are kept apart here.

Experiments:
hTLR8 = biological target: T1, hTLR8 (Homo sapiens, UniProt Q9NR97); experiment: HEK-293 hTLR8 transfectant NF-κB SEAP reporter antagonist assay; format: cell-based
T1 construct: host or cells: HEK293 cells stably transfected with hTLR8
T1 sequence (Q9NR97 27-1041): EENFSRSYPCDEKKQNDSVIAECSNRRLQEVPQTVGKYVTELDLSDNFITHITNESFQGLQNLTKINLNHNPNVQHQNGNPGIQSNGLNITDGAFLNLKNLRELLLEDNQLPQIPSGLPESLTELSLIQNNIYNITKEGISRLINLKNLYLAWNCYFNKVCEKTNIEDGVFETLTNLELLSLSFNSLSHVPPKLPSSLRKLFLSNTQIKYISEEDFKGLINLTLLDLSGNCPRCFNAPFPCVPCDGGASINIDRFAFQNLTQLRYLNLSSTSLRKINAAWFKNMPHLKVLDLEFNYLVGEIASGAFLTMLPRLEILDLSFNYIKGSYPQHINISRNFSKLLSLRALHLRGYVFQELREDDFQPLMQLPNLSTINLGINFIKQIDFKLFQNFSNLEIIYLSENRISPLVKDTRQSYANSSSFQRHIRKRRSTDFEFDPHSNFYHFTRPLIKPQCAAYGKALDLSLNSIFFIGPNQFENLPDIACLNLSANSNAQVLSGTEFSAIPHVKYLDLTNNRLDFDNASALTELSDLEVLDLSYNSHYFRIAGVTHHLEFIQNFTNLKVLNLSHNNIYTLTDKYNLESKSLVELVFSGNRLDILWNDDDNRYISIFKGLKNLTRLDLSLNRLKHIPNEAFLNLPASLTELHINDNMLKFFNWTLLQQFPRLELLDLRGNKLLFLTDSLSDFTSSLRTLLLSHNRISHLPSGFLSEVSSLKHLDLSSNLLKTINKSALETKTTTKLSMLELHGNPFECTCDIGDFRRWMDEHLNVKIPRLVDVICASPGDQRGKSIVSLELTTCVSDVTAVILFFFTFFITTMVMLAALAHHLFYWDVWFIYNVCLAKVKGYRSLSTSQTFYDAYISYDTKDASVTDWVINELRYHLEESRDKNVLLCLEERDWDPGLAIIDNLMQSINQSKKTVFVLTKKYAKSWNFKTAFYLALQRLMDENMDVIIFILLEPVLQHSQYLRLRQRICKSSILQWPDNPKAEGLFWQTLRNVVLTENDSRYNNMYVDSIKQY
Procedure: The HEK-293 hTLR transfectant assay employs HEK293 cells stably transfected with various hTLRs and transiently co-transfected with a plasmid containing an NF-κB driven secreted embryonic alkaline phosphate (SEAP) reporter gene. Stimulation of TLRs activates their downstream signaling pathways and induces nuclear translocation of the transcription factor NF-κB. Reporter gene activity is then measured using a spectrophotometric assay.
For the TLR8 antagonist assays, cells are transiently transfected with the reporter gene on Day 1 per the supplier's instructions. Antagonist compounds are added to the cultures on Day 2 followed by addition of a TLR8 agonist approximately 2 hours later. Cultures are incubated overnight and SEAP activity is measured on Day 3.
In a typical assay, 50,000 HEK239 hTLR8 cells are seeded per culture well and transiently transfected with the SEAP reporter gene. Antagonists are added to cultures in culture medium and […] DMSO over a concentration range of 0.1 nanomolar to 10 micromolar. TLR8 agonists are added to cultures 2 hours later at a fixed concentration (e.g., 1 micromolar or 10 micromolar of Compound A) and cultures are then incubated for 16-24 hrs at 37° C. in a humidified CO incubator. Antagonists are also evaluated for activity in the absence of agonist.
TLR8 antagonist activity at 25 μM is presented in Table 2, where + denotes a % inhibition of 20-39, ++ denotes a % inhibition of 40-59, +++ denotes a % inhibition of 60-79 and ++++ denotes a % inhibition of 80-99. In some cases, antagonist activity was assessed at lower concentrations, for example, at 8.3, 2.8, or less than 1 μM.
TLR8 antagonist activity was measured in a hTLR8 assay format, measuring IC50 values. Compounds were incubated with hTLR8 reporter cells for two hours, then 1 μM Compound A was added to induce TLR8 overnight. IC50 were then calculated.

[1] = tested on: human peripheral blood mononuclear cells (PBMCs); experiment: Human PBMC assay: IL-8 production stimulated with CL075 (ELISA); format: cell-based; details: 3 to 1000 nM antagonist 2 h, then CL075 100 ng/mL (400 nM) overnight, FIG. 1, one donor
Procedure: PBMCs contain a mixture of cells including monocytes and myeloid dendritic cells (mDCs) that express TLR8. […] The ability of TLR8 antagonists to inhibit […] production in human PBMCs was evaluated. […] Data shown in FIG. 1 are a representative experiment from one donor evaluated in duplicate culture wells. Increasing concentrations (from 3 to 1000 nM) of Compounds 3348, 2987, 3261, 3387, and 3448 (labeled as VTX-3348, VTX-2987, VTX-3261, VTX-3387, VTX-3448 in FIG. 1) were added to human PBMCs (50,000 cells/well in RPMI) and incubated for 2 hours in a 37° C. humidified CO2 incubator. […] At the end of the incubation, cells were centrifuged and cell culture supernatants were analyzed for IL-8 by ELISA (eBiosciene kit) per the manufacturer's instructions. The absorbance (OD 450 nm) representative of IL-8 levels is shown on the y-axis of FIG. 1.
The experiment shown in FIG. 1 was repeated in multiple donors and with additional TLR8 antagonist molecules (see FIG. 2). […] Percent inhibition is shown on the y-axis and concentrations of TLR8 antagonists (3-1000 nM) are shown on the x-axis in FIG. 2.

[2] = IC50, nM, vs. VTX-378 1 μM, agonist VTX-378 at 1 μM

IC50 (hTLR8; [2])	IC50 (hTLR8; IC50, nM, vs. VTX-378 10 μM, agonist VTX-378 at 10 μM)	IC50 (hTLR8; IC50, nM, vs. 3M002 10 μM, agonist 3M002 at 10 μM)	IC50 (hTLR8; agonist VTX-378 at 0.5 μM, read-out: IC50, nM, vs. VTX-378 0.5 μM)	SMILES	inhibition of IL-8 production [1]
< 1000 nM	1000 to 10000 nM	–	–	CCCN(CCC)C(=O)C1=Cc2cc(-c3ccc(C(=O)N4CCCC4)cc3)ccc2N=C(N)C1 [Compound 2987]	reduced in a dose dependent fashion
< 1000 nM	–	< 1000 nM	< 1000 nM	CCOC(=O)C1=Cc2cc(-c3ccc(C(=O)N4CCCC4)cc3)ccc2N=C(N)C1(C)C [Compound 3348]	reduced in a dose dependent fashion
